{"source": "patent US20150126467A1", "about": "“USE OF ALGINATE OLIGOMERS TO ENHANCE THE EFFECTS OF ANTIFUNGAL AGENTS” (AlgiIPharma AS, priority 2011, published 2015)", "key": {"[1]": {"tested_on": "Candida albicans, CCUG 39343", "experiment": "Robotic MIC assay (Example 1)", "type": "cell-based", "conditions": "for MIC: Candida albicans, CCUG39343, 24 h, 24 hours, read-out: Minimum Inhibitory Concentration (MIC); for reduction in MIC values: comparing 0 and 10% G-block", "procedure": "(§1) A robotic MIC Assay was performed as follows. OligoG CF-5/20 were dissolved in medium (Mueller-Hinton broth or M19 broth depending on experiment) to 1.25 times of the desired assay concentrations (2, 6 and 10%). The antifungal agents under test were dissolved in medium without OligoG CF-5/20 and in medium with OligoG CF-5/20 at a concentration of 1.25 times the highest desired assay concentrations. For experiments where the effect of adding different concentrations of Na^+ was investigated, NaCl was dissolved in medium to the desired concentrations (10, 30 and 50 mM).\n(§2) Two-fold serial dilutions of antifungal agents were made in medium with different concentrations of OligoG CF-5/20, and the solutions were placed in four parallel wells in Nunc 384-well micro plates (30 μl per well in Nunc 242757 microplates). A group of 8 wells with no addition of antifungal agents for each OligoG CF-5/20 concentration was included on each microplate as growth reference. To each well in the 384-well assay plates was added 7.5 μl of medium inoculated with a frozen stock culture of Candida albicans (strain CCUG 39343).\nThe frozen stock culture was prepared by growing the Candida strain at 34° C. for 48 h on YM-agar. 1-3 colonies from the plates were grown in 6 ml YM-broth at 34° C. for 14 h before freezing in 6% glycerol at −80° C. Each batch of frozen stock culture was then characterized in separate growth experiments using Mueller-Hinton or M19 broth to determine the minimum amount of inoculum giving satisfactory growth after 48 h under the conditions relevant for the MIC assay. This inoculation procedure is used in order to reduce day to day variation in bioassays.\n(§3) The micro plates were placed in plastic bags and incubated without shaking at 34° C. The optical density at 600 nm in the microwells was measured after approximately 13, 18, 24 and 34 hours of incubation, and the relative growth yield in each well was calculated based on the growth in the reference groups."}, "Candida albicans": {"tested_on": "Candida albicans", "experiment": "Robotic MIC assay with asthma/COPD medicaments (Example 5)", "type": "cell-based", "conditions": "Mueller-Hinton broth; for MIC: Candida albicans, 24 h", "procedure": "as §1, §2, §3\nThe robotic assay described in Example 1 was employed in this Example. […] The concentration utilized for the different components were based on information from Manocha et al. (2006).\nIn this assay only Mueller-Hinton broth was used since this is the medium specified for standardized MIC assays (Jorgensen et al., 1999)."}, "[2]": {"tested_on": "Aspergillus niger CCUG 18919", "experiment": "Robotic MIC assay, Aspergillus (Example 4)", "type": "cell-based", "conditions": "Aspergillus niger, CCUG18919, 48 h, Mueller-Hinton broth, read-out: Minimum Inhibitory Concentration (MIC)", "method_in_brief": "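Frozen spore/mycelium stocks were used as inoculum, sized for adequate 48 h growth. Two-fold antifungal dilutions were prepared in Mueller-Hinton broth with OligoG CF-5/20 (2, 6 or 10% assay concentrations; quadruplicate wells). Plates were incubated static at 34 °C, with OD600 read at about 24 and 48 h.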"}, "[3]": {"tested_on": "C. tropicalis 12 (vaginal)", "experiment": "Standard MIC testing in RPMI medium (Example 3)", "type": "cell-based", "conditions": "Candida tropicalis, 48 h, read-out: Minimum Inhibitory Concentration (MIC)", "experimental": "(§4) Following retrieval from −80° C. storage, fungal colonies were grown on blood agar with 5% sheep blood and were used to inoculate tryptone soya broth (TSB) for overnight growth. […] Fungal cultures at 0.5 McFarland standard were diluted ten-fold in RPMI medium and 5 μl added to the media containing wells of the microtiter plates. Plates were wrapped in parafilm and incubated at 34° C. for 48 hours. MIC values were determined as the lowest concentration at which there was no visible growth."}, "[4]": {"tested_on": "C. krusei 249/03(2) (ulceration)", "experiment": "Standard MIC testing in RPMI medium (Example 3)", "type": "cell-based, Candida krusei", "conditions": "48 h", "experimental": "as §4"}, "[5]": {"conditions": "A. niger CCUG 18919, 10% OligoG"}}, "note": "Read-outs that look alike come from different tables or passages of the source.", "data": [{"molecule": "C[C@@H]1[C@H](O)[C@@H](C)/C=C/C=C/C=C/C=C/C=C/C=C/C=C/[C@H](O[C@@H]2O[C@H](C)[C@@H](O)[C@H](N)[C@@H]2O)C[C@@H]2O[C@](O)(C[C@@H](O)C[C@@H](O)[C@H](O)CC[C@@H](O)C[C@@H](O)CC(=O)O[C@H]1C)C[C@H](O)[C@H]2C(=O)O", "note": "[Amphotericin B, amphotericin B]", "values": [{"measurement": "MIC", "setting": "[1]; M19, NaCl 0 mM", "value": 1.2, "unit": "µg/mL"}, {"measurement": "MIC", "setting": "[1]; M19, NaCl 10 mM", "value": 0.3, "unit": "µg/mL"}, {"measurement": "MIC", "setting": "[1]; M19, NaCl 30 mM", "value": 0.3, "unit": "µg/mL"}, {"measurement": "MIC", "setting": "[1]; M19, NaCl 50 mM", "value": 0.3, "unit": "µg/mL"}, {"measurement": "MIC", "setting": "[1]; M19, OligoG CF 5/20 0%", "value": 1.2, "unit": "µg/mL"}, {"measurement": "MIC", "setting": "[1]; M19, OligoG CF 5/20 2%", "value": 0.3, "unit": "µg/mL"}, {"measurement": "MIC", "setting": "[1]; M19, OligoG CF 5/20 6%", "value": 0.075, "unit": "µg/mL"}, {"measurement": "MIC", "setting": "[1]; M19, OligoG CF 5/20 10%", "value": 0.0375, "unit": "µg/mL"}, {"measurement": "MIC", "setting": "[1]; Mueller-Hinton, NaCl 0 mM", "value": 0.15, "unit": "µg/mL"}, {"measurement": "MIC", "setting": "[1]; Mueller-Hinton, NaCl 10 mM", "value": 0.15, "unit": "µg/mL"}, {"measurement": "MIC", "setting": "[1]; Mueller-Hinton, NaCl 30 mM", "value": 0.15, "unit": "µg/mL"}, {"measurement": "MIC", "setting": "[1]; Mueller-Hinton, NaCl 50 mM", "value": 0.15, "unit": "µg/mL"}, {"measurement": "MIC", "setting": "[1]; Mueller-Hinton, OligoG CF 5/20 0%", "value": 0.15, "unit": "µg/mL"}, {"measurement": "MIC", "setting": "[1]; Mueller-Hinton, OligoG CF 5/20 2%", "value": 0.15, "unit": "µg/mL"}, {"measurement": "MIC", "setting": "[1]; Mueller-Hinton, OligoG CF 5/20 6%", "value": 0.0375, "unit": "µg/mL"}, {"measurement": "MIC", "setting": "[1]; Mueller-Hinton, OligoG CF 5/20 10%", "value": 0.0094, "unit": "µg/mL"}, {"measurement": "reduction in MIC values", "setting": "[1]; M19", "value": 32, "unit": "×"}, {"measurement": "reduction in MIC values", "setting": "[1]; Mueller-Hinton", "value": 16, "unit": "×"}, {"measurement": "effect of addition of OligoG CF-5/20 on MIC values", "setting": "[1]; both media tested (M19, Mueller-Hinton)", "value": "reduction in MIC values"}, {"measurement": "MIC", "setting": "Candida albicans; no medicament added, G-block 0%", "value": 0.0938, "unit": "µg/mL"}, {"measurement": "MIC", "setting": "Candida albicans; no medicament added, G-block 2%", "value": 0.0938, "unit": "µg/mL"}, {"measurement": "MIC", "setting": "Candida albicans; no medicament added, G-block 6%", "value": 0.0469, "unit": "µg/mL"}, {"measurement": "MIC", "setting": "Candida albicans; no medicament added, G-block 10%", "value": 0.0234, "unit": "µg/mL"}, {"measurement": "MIC", "setting": "Candida albicans; with Budesonide 0.01 mM, G-block 0%", "value": 0.0938, "unit": "µg/mL"}, {"measurement": "MIC", "setting": "Candida albicans; with Budesonide 0.01 mM, G-block 2%", "value": 0.0938, "unit": "µg/mL"}, {"measurement": "MIC", "setting": "Candida albicans; with Budesonide 0.01 mM, G-block 6%", "value": 0.0469, "unit": "µg/mL"}, {"measurement": "MIC", "setting": "Candida albicans; with Budesonide 0.01 mM, G-block 10%", "value": 0.0469, "unit": "µg/mL"}, {"measurement": "MIC", "setting": "Candida albicans; with Formoterol 0.5 mM (2% DMSO), G-block 0%", "value": 0.0469, "unit": "µg/mL"}, {"measurement": "MIC", "setting": "Candida albicans; with Formoterol 0.5 mM (2% DMSO), G-block 2%", "value": 0.0469, "unit": "µg/mL"}, {"measurement": "MIC", "setting": "Candida albicans; with Formoterol 0.5 mM (2% DMSO), G-block 6%", "value": 0.0234, "unit": "µg/mL"}, {"measurement": "MIC", "setting": "Candida albicans; with Formoterol 0.5 mM (2% DMSO), G-block 10%", "value": 0.0117, "unit": "µg/mL"}, {"measurement": "MIC", "setting": "Candida albicans; with Ipratropium bromide 0.01 mM, G-block 0%", "value": 0.0938, "unit": "µg/mL"}, {"measurement": "MIC", "setting": "Candida albicans; with Ipratropium bromide 0.01 mM, G-block 2%", "value": 0.0469, "unit": "µg/mL"}, {"measurement": "MIC", "setting": "Candida albicans; with Ipratropium bromide 0.01 mM, G-block 6%", "value": 0.0234, "unit": "µg/mL"}, {"measurement": "MIC", "setting": "Candida albicans; with Ipratropium bromide 0.01 mM, G-block 10%", "value": 0.0117, "unit": "µg/mL"}, {"measurement": "MIC", "setting": "Candida albicans; with Ipratropium bromide 1 mM, G-block 0%", "value": 0.188, "unit": "µg/mL"}, {"measurement": "MIC", "setting": "Candida albicans; with Ipratropium bromide 1 mM, G-block 2%", "value": 0.0938, "unit": "µg/mL"}, {"measurement": "MIC", "setting": "Candida albicans; with Ipratropium bromide 1 mM, G-block 6%", "value": 0.0469, "unit": "µg/mL"}, {"measurement": "MIC", "setting": "Candida albicans; with Ipratropium bromide 1 mM, G-block 10%", "value": 0.0234, "unit": "µg/mL"}, {"measurement": "MIC", "setting": "Candida albicans; with Salbutamol 0.01 mM, G-block 0%", "value": 0.0469, "unit": "µg/mL"}, {"measurement": "MIC", "setting": "Candida albicans; with Salbutamol 0.01 mM, G-block 2%", "value": 0.0469, "unit": "µg/mL"}, {"measurement": "MIC", "setting": "Candida albicans; with Salbutamol 0.01 mM, G-block 6%", "value": 0.0234, "unit": "µg/mL"}, {"measurement": "MIC", "setting": "Candida albicans; with Salbutamol 0.01 mM, G-block 10%", "value": 0.0117, "unit": "µg/mL"}, {"measurement": "MIC", "setting": "Candida albicans; with Salbutamol 1 mM, G-block 0%", "value": 0.0469, "unit": "µg/mL"}, {"measurement": "MIC", "setting": "Candida albicans; with Salbutamol 1 mM, G-block 2%", "value": 0.0469, "unit": "µg/mL"}, {"measurement": "MIC", "setting": "Candida albicans; with Salbutamol 1 mM, G-block 6%", "value": 0.0234, "unit": "µg/mL"}, {"measurement": "MIC", "setting": "Candida albicans; with Salbutamol 1 mM, G-block 10%", "value": 0.0117, "unit": "µg/mL"}, {"measurement": "reduction in MIC values", "setting": "Candida albicans; addition of 10% OligoG CF-5/20 compared to without OligoG CF-5/20", "value": 4, "unit": "×"}, {"measurement": "MIC", "setting": "[2]; A. niger CCUG 18919, 0% OligoG", "value": 0.188, "unit": "µg/mL"}, {"measurement": "MIC", "setting": "[2]; A. niger CCUG 18919, 2% OligoG", "value": 0.188, "unit": "µg/mL"}, {"measurement": "MIC", "setting": "[2]; A. niger CCUG 18919, 6% OligoG", "value": 0.0938, "unit": "µg/mL"}, {"measurement": "MIC", "setting": "[2]; [5]", "value": 0.0469, "unit": "µg/mL"}]}, {"molecule": "OC(Cn1cncn1)(Cn1cncn1)c1ccc(F)cc1F", "note": "[Fluconazole, fluconazole]", "values": [{"measurement": "MIC", "setting": "[2]; A. niger CCUG 18919, 0% OligoG", "value": "> 128", "unit": "µg/mL"}, {"measurement": "MIC", "setting": "[2]; A. niger CCUG 18919, 2% OligoG", "value": "> 128", "unit": "µg/mL"}, {"measurement": "MIC", "setting": "[2]; A. niger CCUG 18919, 6% OligoG", "value": "> 128", "unit": "µg/mL"}, {"measurement": "MIC", "setting": "[2]; [5]", "value": 128, "unit": "µg/mL"}, {"measurement": "MIC", "setting": "[3]; 0% OligoG", "value": 128, "unit": "µg/mL"}, {"measurement": "MIC", "setting": "[3]; 2% OligoG", "value": 128, "unit": "µg/mL"}, {"measurement": "MIC", "setting": "[3]; 6% OligoG", "value": 4, "unit": "µg/mL"}, {"measurement": "MIC", "setting": "[3]; 10% OligoG", "value": 1, "unit": "µg/mL"}, {"measurement": "Minimum Inhibitory Concentration (MIC)", "setting": "[4]; 0% OligoG", "value": 4, "unit": "µg/mL"}, {"measurement": "Minimum Inhibitory Concentration (MIC)", "setting": "[4]; 6% OligoG", "value": 4, "unit": "µg/mL"}, {"measurement": "Minimum Inhibitory Concentration (MIC)", "setting": "[4]; 10% OligoG", "value": 4, "unit": "µg/mL"}, {"measurement": "MIC", "setting": "[4]; Pichia kudriavzevii, 2% OligoG, read-out: Minimum Inhibitory Concentration (MIC)", "value": 4, "unit": "µg/mL"}]}]}
